Read-outs that look alike come from different tables or passages of the source.
Assay: Phase 1 Stage 1 clinical pharmacokinetics of SC ZA co-administered with rHuPH20
Format: in vivo, human
Conditions: human, serum, sc; for MRT: read-out: MRT; for Tmax: read-out: Tmax; for AUC(0-inf): read-out: AUC (0-∞); for AUC(0-t): ZA […] SC
Description: A pharmacokinetic study of zoledronic acid (ZA) co-administered with rHuPH20 in human subjects was conducted. The primary objective of the study was to determine the bioavailability of zoledronic acid dosed via subcutaneous (SC) co-administration with human recombinant hyaluronidase PH20 (rHuPH20). […] The patients were administered the prescribed dosage formulations as follows: Cohorts 1-5 were administered a single subcutaneous infusion in a dosage volume of 100 ml at a rate of 3 mL/min. […] The dosing solution is administered via needle or catheter into the SC space of the left anterior thigh (midway between the anterior iliac crest and the cephalad border of the patella). For cohorts 1-5, the dosing solutions were administered by a controlled rate infusion pump at approximately 3 mL/minute. […] The dosing solutions were administered by syringe push bolus injection. […] Serum concentration of ZA was determined using a qualified LC-MS-MS assay after derivatization with diazomethane (Zhu, L S et al. (2006) Rapid Commun. […] The assay range was from 2.0 to 400 ng/mL with a lower limit of quantitation (LLOQ) at 2.0 ng/mL. […] Non-compartmental analysis was used for derivation of primary and secondary pharmacokinetic (PK) parameters. […] Summary statistics (mean, standard deviation, and median) were calculated using JMP or Microsoft Excel.

[1] = ZA 1 mg SC + 24000 U rHuPH20, individual subjects
[2] = ZA 1 mg SC + 24000 U rHuPH20, mean, n=3
[3] = ZA 1 mg SC + 24000 U rHuPH20, median, n=3
[4] = ZA 2 mg SC + 24000 U rHuPH20, individual subjects
[5] = ZA 2 mg SC + 24000 U rHuPH20, mean, n=3
[6] = ZA 2 mg SC + 24000 U rHuPH20, median, n=3
[7] = ZA 5 mg SC + 24000 U rHuPH20, individual subjects
[8] = ZA 5 mg SC + 24000 U rHuPH20, mean, n=3
[9] = ZA 5 mg SC + 24000 U rHuPH20, median, n=3

In the case of O=P(O)(O)C(O)(Cn1ccnc1)P(=O)(O)O [ZA, 1-hydroxy-2-(1H-imidazol-1-yl)ethylidene-1,1-bisphosphonic acid], the MRT [1] was 6.93 h, the Tmax [1] was 1.31 h and the Vd/F (ZA 1 mg SC + 24000 U rHuPH20, individual subjects, read-out: Vss/F) was 0.988 L/kg. For the same compound, the Vd/F (ZA 1 mg SC + 24000 U rHuPH20, individual subjects, read-out: Vz/F) was 2.65 L/kg, the CL/F [2] was 2.15 mL/min/kg and the Cmax [2] was 29.5 ng/mL. For the same compound, the AUC(0-inf) [2] was 134 ng·h/mL, the MRT [2] was 6.61 h and the Tmax [2] was 1.03 h. The Vd/F (ZA 1 mg SC + 24000 U rHuPH20, mean, n=3, read-out: Vss/F) was 0.852 L/kg, the Vd/F (ZA 1 mg SC + 24000 U rHuPH20, mean, n=3, read-out: Vz/F) was 2.13 L/kg and the CL/F [3] was 2.38 mL/min/kg. The Cmax [3] was 30.1 ng/mL, the AUC(0-inf) [3] was 122 ng·h/mL and the MRT [3] was 6.66 h. It also gave a Tmax [3] of 1.06 h, a Vd/F (ZA 1 mg SC + 24000 U rHuPH20, median, n=3, read-out: Vss/F) of 0.988 L/kg and a Vd/F (ZA 1 mg SC + 24000 U rHuPH20, median, n=3, read-out: Vz/F) of 2.05 L/kg. The CL/F [4] was 2.25 mL/min/kg, the Cmax [4] was 62.8 ng/mL and the AUC(0-inf) [4] was 246 ng·h/mL. For the same compound, the MRT [4] was 5.72 h, the Tmax [4] was 1.31 h and the Vd/F (ZA 2 mg SC + 24000 U rHuPH20, individual subjects, read-out: Vss/F) was 0.774 L/kg. It also gave a Vd/F (ZA 2 mg SC + 24000 U rHuPH20, individual subjects, read-out: Vz/F) of 2.48 L/kg, a CL/F [5] of 2.11 mL/min/kg and a Cmax [5] of 58.2 ng/mL. It also gave an AUC(0-inf) [5] of 262 ng·h/mL, an MRT [5] of 7.5 h and a Tmax [5] of 1.48 h. It also gave a Vd/F (ZA 2 mg SC + 24000 U rHuPH20, mean, n=3, read-out: Vss/F) of 0.941 L/kg, a Vd/F (ZA 2 mg SC + 24000 U rHuPH20, mean, n=3, read-out: Vz/F) of 2.87 L/kg and a CL/F [6] of 2.06 mL/min/kg. For the same compound, the Cmax [6] was 58.7 ng/mL, the AUC(0-inf) [6] was 246 ng·h/mL and the MRT [6] was 6.19 h. It also gave a Tmax [6] of 1.56 h, a Vd/F (ZA 2 mg SC + 24000 U rHuPH20, median, n=3, read-out: Vss/F) of 0.774 L/kg and a Vd/F (ZA 2 mg SC + 24000 U rHuPH20, median, n=3, read-out: Vz/F) of 2.48 L/kg. The CL/F [7] was 2.11 mL/min/kg, the Cmax [7] was 131 ng/mL and the AUC(0-inf) [7] was 620 ng·h/mL. It also gave an MRT [7] of 10.9 h, a Tmax [7] of 0.81 h and a Vd/F (ZA 5 mg SC + 24000 U rHuPH20, individual subjects, read-out: Vss/F) of 1.39 L/kg. The Vd/F (ZA 5 mg SC + 24000 U rHuPH20, individual subjects, read-out: Vz/F) was 4.27 L/kg, the CL/F [8] was 1.85 mL/min/kg and the Cmax [8] was 132 ng/mL. It also gave an AUC(0-inf) [8] of 662 ng·h/mL, an MRT [8] of 12.5 h and a Tmax [8] of 0.98 h. It also gave a Vd/F (ZA 5 mg SC + 24000 U rHuPH20, mean, n=3, read-out: Vss/F) of 1.38 L/kg, a Vd/F (ZA 5 mg SC + 24000 U rHuPH20, mean, n=3, read-out: Vz/F) of 3.92 L/kg and a CL/F [9] of 1.85 mL/min/kg. It also gave a Cmax [9] of 131 ng/mL, an AUC(0-inf) [9] of 637 ng·h/mL and an MRT [9] of 12.7 h. For the same compound, the Tmax [9] was 0.81 h, the Vd/F (ZA 5 mg SC + 24000 U rHuPH20, median, n=3, read-out: Vss/F) was 1.39 L/kg and the Vd/F (ZA 5 mg SC + 24000 U rHuPH20, median, n=3, read-out: Vz/F) was 3.91 L/kg. The AUC(0-t) (AUC (0-12 h), Subj 1, inf 0.554 hr, PH20 23928 U) was 29.2 ng·h/mL, the AUC(0-t) (AUC (0-12 h), Subj 8, inf 0.531 hr, PH20 22944 U) was 28.8 ng·h/mL and the AUC(0-t) (AUC (0-12 h), Subj 11, inf 0.554 hr, PH20 23928 U) was 29.4 ng·h/mL. For the same compound, the AUC(0-t) (AUC (0-12 h), Subj 16, inf 0.553 hr, PH20 23904 U) was 60.8 ng·h/mL, the AUC(0-t) (AUC (0-12 h), Subj 18, inf […], PH20 23304 U) was 66.2 ng·h/mL and the AUC(0-t) (AUC (0-12 h), Subj 21, inf 0.556 hr, PH20 24000 U) was 62.4 ng·h/mL. For the same compound, the AUC(0-t) (AUC (0-12 h), Subj 25, inf 0.549 hr, PH20 23736 U) was 103 ng·h/mL, the AUC(0-t) (AUC (0-12 h), Subj 26, inf […], PH20 23088 U) was 137 ng·h/mL and the AUC(0-t) (AUC (0-12 h), Subj 31, inf 0.554 hr, PH20 23952 U) was 213 ng·h/mL. For the same compound, the AUC(0-t) (AUC (0-12 h), Subj 32, inf 0.556 hr, PH20 24000 U) was 238 ng·h/mL, the AUC(0-t) (AUC (0-12 h), Subj 51, inf 0.251 hr, PH20 6024 U) was 384 ng·h/mL and the AUC(0-t) (AUC (0-12 h), Subj 77, inf […], PH20 6000 U) was 516 ng·h/mL. The AUC(0-t) (AUC (0-24 h), Subj 1, inf 0.554 hr, PH20 23928 U) was 29.4 ng·h/mL, the AUC(0-t) (AUC (0-24 h), Subj 8, inf 0.531 hr, PH20 22944 U) was 29.4 ng·h/mL and the AUC(0-t) (AUC (0-24 h), Subj 11, inf 0.554 hr, PH20 23928 U) was 29.9 ng·h/mL. The AUC(0-t) (AUC (0-24 h), Subj 16, inf 0.553 hr, PH20 23904 U) was 62.9 ng·h/mL, the AUC(0-t) (AUC (0-24 h), Subj 18, inf […], PH20 23304 U) was 68.5 ng·h/mL and the AUC(0-t) (AUC (0-24 h), Subj 21, inf 0.556 hr, PH20 24000 U) was 64.7 ng·h/mL. It also gave an AUC(0-t) (AUC (0-24 h), Subj 25, inf 0.549 hr, PH20 23736 U) of 112 ng·h/mL, an AUC(0-t) (AUC (0-24 h), Subj 26, inf […], PH20 23088 U) of 147 ng·h/mL and an AUC(0-t) (AUC (0-24 h), Subj 31, inf 0.554 hr, PH20 23952 U) of 228 ng·h/mL. It also gave an AUC(0-t) (AUC (0-24 h), Subj 32, inf 0.556 hr, PH20 24000 U) of 257 ng·h/mL, an AUC(0-t) (AUC (0-24 h), Subj 51, inf 0.251 hr, PH20 6024 U) of 430 ng·h/mL and an AUC(0-t) (AUC (0-24 h), Subj 77, inf […], PH20 6000 U) of 566 ng·h/mL. The AUC(0-t) (AUC (0-48 h), Subj 1, inf 0.554 hr, PH20 23928 U) was 29.4 ng·h/mL, the AUC(0-t) (AUC (0-48 h), Subj 8, inf 0.531 hr, PH20 22944 U) was 29.4 ng·h/mL and the AUC(0-t) (AUC (0-48 h), Subj 11, inf 0.554 hr, PH20 23928 U) was 29.9 ng·h/mL. The AUC(0-t) (AUC (0-48 h), Subj 16, inf 0.553 hr, PH20 23904 U) was 64.2 ng·h/mL.
